Assay results: US7812116B2, “Immunogenic peptides” (Rush University Medical Center, priority 2003, dated 2010)

Assays:
HLA-A2.1 = HLA-A2.1 (Homo sapiens, UniProt P04439, D140Y/D185E/D98H/E176V/E277Q/G131W/G231S/I119V/I121R/I166T/I218V/L300P/L318F/N151K/N90K/P208A/P217A/Q86G/Q94H/R138H/R169H/T345S); test: Peptide/HLA-A2.1 complex stability on T2 cells under Brefeldin A treatment; assay type: binding
dendritic cells = test: Phenotypic analysis of mature dendritic (mDC) and T2 antigen-presenting cells; assay type: cell-based, human; conditions: DCs from CD14+ monocytes, maturation factor during last three days of culture
Experimental: Immature DCs can be generated according to modified protocols of Romani N, et al., J Exp Med 180, pp. 83-89, 1994; and Bakker et al., Cancer Res 55, pp. 5330-5334, 1995. Briefly, fresh or frozen/thawed CD14+cells are cultured in RPMI 1640 medium (Gibco-Life Technologies, Gaithersburg, Md.) supplemented with 10% FCS, 1,000 U/ml GM-CSF and 1,000 U/ml IL-4. The cell cultures are fed with fresh medium and GM-CSF and IL-4 every other day and cell differentiation is monitored by light microscopy. On day 7, the cultures are supplemented with different combinations of DC maturation factors such as lipopolysaccharide (100 U/ml), TNF-α (10 ng/ml), or IFN-α (1,000 U/ml) plus TNF-α (10 ng/ml). After three days of incubation, mature DCs (mDC) are harvested and their phenotypes are evaluated by flow cytometry. The maturation factor(s) yielding optimal DC maturation are determined and used to generate mDCs for peptide pulsing in upcoming studies. In this example, immature DCs obtained by the culture of CD14+monocytes with GM-CSF (1,000 U/ml) and IL-4 (1,000 U/ml) are induced to undergo maturation by incubation with LPS (100 Units/ml), TNF-α (10 ng/ml) or TNF-α (10 ng/ml)+IFN-γ (50 ng/ml) during the final three days of the culture period. […] HLA-DR and no expression of CD3 or CD14 (data not shown). The highest up-regulation of the co-immunostimulatory (CD80 and CD86) and HLA-A2.1 MHC class I molecules is detected on DCs treated with TNF-α+IFN-γ (Table 5). […] The phenotype of the T2 cell line is evaluated to determine its potential for use as an alternative type of antigen presenting cell. […] The expression of CD80 is higher on T2 cells compared to mDCs.

LLFLTPMEV (listed as Homo sapiens) [SEQ ID NO: 3, CD19 9-mer fragment]
HLA-A2.1 binding and stability in words (HLA-A2.1): good and prolonged stable binding

TLAYLIFCL (listed as Homo sapiens) [SEQ ID NO: 2, CD19 9-mer fragment]
HLA-A2.1 binding and stability in words (HLA-A2.1): good and prolonged stable binding

SLFLGILSV (listed as Homo sapiens) [SEQ ID NO: 6, CD20 9-mer fragment]
HLA-A2.1 binding and stability in words (HLA-A2.1): good and prolonged stable binding

TNF-α
CD80 mean channel fluorescence (MCF) (dendritic cells): 107 | CD86 mean channel fluorescence (MCF) (dendritic cells): 96 | HLA-A2.1 mean channel fluorescence (MCF) (dendritic cells): 475

lipopolysaccharide [LPS, reference compound]
CD80 mean channel fluorescence (MCF) (dendritic cells): 71 | CD86 mean channel fluorescence (MCF) (dendritic cells): 40 | HLA-A2.1 mean channel fluorescence (MCF) (dendritic cells): 316
